Ten compounds from patent US11618883B2, “Method for producing retinal pigment epithelial cells” (SUMITOMO PHARMA CO., LTD., priority 2017, dated 2023) can be followed below.

In experiment [1] the test system is human iPS cells (QHJI01 line). Kind of experiment: Production of RPE cells from iPS cells with a ROCK inhibitor or caspase inhibitor in the second step; visual observation of brown-black cell population. The class given is cell-based.
Experiment [2] has as its system human iPS cells (201B7, 1231A3, Ff-I01, QHJI01 lines). Kind of experiment: Production of RPE cells including MEK inhibitor or FGF receptor inhibitor treatment step (first step); observation of brown-black cell population. The format is cell-based. From the text: In one embodiment, to study the effect of the FGF receptor inhibitor in a medium free of a factor for maintaining undifferentiated state (bFGF), STEMSURE™ hPSC Medium Δ (Wako Pure Chemical Industries, Ltd.) (hereinafter STEMSURE™ hPSC Medium Δ w/o bFGF) not added with bFGF was used.
2014 Jan. 8; 4: 3594”. The medium used was STEMFIT™ AK03N medium (Ajinomoto Co., Inc.) (hereinafter AK03N medium).

Experiment [3] relates to human iPS cells (1231A3 line). Nature of the experiment: Production of RPE cells from iPS cells with a ROCK inhibitor in the second step; visual observation of brown-black cell population. The format is cell-based. The note with it: for concentration at which emergence of a brown-black cell population could be visually confirmed: second step. As for the experimental part: 2014 Jan. 8; 4: 3594”. The medium used was […] A[…] medium (Ajinomoto Co., Inc.) (hereinafter AK03 medium). […] On the next day of seeding, FGF receptor inhibitor PD173074 (SIGMA) (final concentration 100 nM) was added to the A[…] medium (start of the first step), the medium was exchanged with A[…] medium added with an FGF receptor inhibitor every other day, and the cells were exposed to the FGF receptor inhibitor for 6 days in total (completion of the first step). […] On the first day of culture, A[…] (final concentration 10 μM) or A[…] medium without addition of Y-27632 as a comparison target was used. […] 2014 Jan. 8; 4: 3594”. The medium used was […] A[…] medium (Ajinomoto Co., Inc.) (hereinafter A[…] medium). […] On the next day of seeding, FGF receptor inhibitor PD173074 (SIGMA) (final concentration 100 nM) or MEK inhibitor PD0325901 (SIGMA) (final concentration 1 μM) was added to the A[…] medium (start of the first step), the medium was exchanged with A[…] medium added with an FGF receptor inhibitor or MEK inhibitor every other day, and the cells were exposed to FGF receptor inhibitor or MEK inhibitor for 6 days in total (completion of the first step). […] In the case of 1231A3 line, on the first day of culture, A[…] to a final concentration of 1 μM, 3 μM, 10 μM, 30 μM or 100 μM or, as a comparison target, A[…] medium without addition of Y-27632 was used. […] 2014 Jan. 8; 4: 3594”. The medium used was […] A[…] medium (Ajinomoto Co., Inc.) (hereinafter A[…] medium). […] On the next day of seeding, FGF receptor inhibitor PD173074 (SIGMA) (final concentration 100 nM) was added to the A[…] medium (start of the first step), the medium was exchanged every other day using A[…] medium added with FGF receptor inhibitor, and the cells were exposed to FGF receptor inhibitor for 6 days in total (completion of the first step). […] In the case of 1231A3 line, on the first day of culture, A[…] medium added with ROCK inhibitor Fasudil (Wako Pure Chemical Industries, Ltd.) to a final concentration of 10 μM, 30 μM or 100 μM or, as a comparison target, A[…] medium without addition of Fasudil was used.

Experiment [4] concerns human iPS cells (QHJI01 line). Kind of experiment: Differentiation induction effect of Nodal and/or Wnt signal transduction pathway inhibitor in the second step. The class given is cell-based. The note with it: for emergence of cells showing typical characteristics of RPE cell: second step days 1-12 with 10 μM Y-27632 plus 5 μM SB-431542 and/or 3 μM CKI-7, first step 1 μM PD0325901, day 43.
Method: Production of retinal pigment epithelial (RPE) cells including an MEK inhibitor treatment step was performed as follows. iPS cells under culture for maintaining undifferentiated state were treated with 0.5×TRYPLE™ Select cell dissociation solution (mixture of equal amounts of TRYPLE™ Select cell dissociation solution (Life Technologies) and 0.5 mM EDTA/PBS(−)), dissociated using a cell scraper, dispersed to single cells by pipetting, seeded in a 6-well culture plate coated with IMATRIX™-511 laminin 511 E8 fragment (Nippi) (0.5 μg/cm^2) at 2.0×10^4 cells per 1 well and cultured in a ROCK inhibitor [10 μM Y-27632 (Wako Pure Chemical Industries, Ltd.)]-containing AK03N medium under 37° C., 5% CO2 conditions. On the next day of seeding, PD0325901 (SIGMA) (final concentration 1 μM) as MEK inhibitor was added to the AK03N medium (start of the first step) and the cells were exposed thereto for 6 days (completion of the first step). Thereafter, the cells were treated with 0.5×TRYPLE™ Select cell dissociation solution, dissociated using a cell scraper, dispersed to single cells by pipetting, seeded in a 12-well culture plate coated with IMATRIX™-511 laminin 511 E8 fragment (0.5 μg/cm^2) at 0.8×10^5 cells per 1 well and cultured under 37° C., 5% CO2 conditions (start of the second step). In the second step, the following 3 kinds of media were used. […]

For experiment [5], the system named is RPE65, BEST1, CRALBP. Kind of experiment: RT-PCR of retinal pigment epithelial cell markers after MEK inhibitor or FGF receptor inhibitor treatment step. The class given is cell-based, human. The note with it: first step 6 days (1 μM PD0325901 or 100 nM PD173074); 1231A3 line; day 43; bands very thin when untreated. As for the experimental part:
2014 Jan. 8; 4: 3594”. The medium used was […] A[…] medium (Ajinomoto Co., Inc.) (hereinafter A[…] medium). […] After observation on day 43 of culture, the cells were collected, RNA was extracted and RT-PCR was performed. RNEASYTM Micro Kit (QIAGEN) was used for RNA extraction, Oligo(dT)12-18Primer (Invitrogen) and SUPERSCRIPTTM III Reverse Transcriptase (Invitrogen) were used for reverse transcription reaction, and BLEND TAQTM-Plus-(TOYOBO) was used for PCR. The primer sequences of RPE65, BEST1, CRLBP, GAPDH are as described below. […] NO: 1), […] NO: 2), […] NO: 3), […] NO: 4), CRALBP-[…] NO: 5), CRALBP-[…] NO: 6), […] NO: 7), […] NO: 8). The number of cycles of the PCR reaction was 30 cycles for RPE65, BEST1, GAPDH, and 35 cycles for CRALBP. PCR products were detected as a single band by agarose gel electrophoresis at near 369 bp for RPE65, near 261 bp for BEST1, near 341 bp for CRALBP, and near 452 bp for GAPDH. As a positive control, primary human RPE (hRPE) was used and, as a negative control, iPS cells (undifferentiated iPSC) cultured under conditions for maintaining undifferentiated state were used.

[6] abbreviates: first step 6 days: 1 μM PD0325901, 1.5, 3, 6 μM PD184352, 5, 10 μM U0126, 0.3 μM TAK-733, 0.3 μM AZD-8330, QHJI01 and 1231A3 lines, day 49 and day 50.
Where [7] appears, read: first step 6 days: 100 nM PD173074, 5, 10, 20 μM SU5402, QHJI01 and 1231A3 lines, day 49 of culture.

As to `COC(=O)C[C@H](NC(=O)[C@H](C)NC(=O)[C@@H](NC(=O)OCc1ccccc1)C(C)C)C(=O)CF` (racemic) [Z-VAD-FMK, benzyloxycarbonyl-Val-Ala-DL-Asp(OMe)-fluoromethylketone], the “emergence of a brown-black cell population” value in experiment [1] (20 μM in second step, 2.0×10^6 cells per well, first step MEK inhibitor, day 65 or 67 of culture) was “could be visually confirmed”.
Turning to `Cc1cc(C(=O)NOCCO)c(Nc2ccc(I)cc2F)n(C)c1=O` [AZD-8330, 2-(2-fluoro-4-iodophenylamino)-N-(2-hydroxyethoxy)-1,5-dimethyl-6-oxo-1,6-dihydropyridine-3-carboxamide], in experiment [2] (setting [6]), the “emergence of a brown-black cell population” value was “could be confirmed over a wide area”.
Regarding `O=S(=O)(c1cccc2cnccc12)N1CCCNCC1` [Fasudil, 1-(5-oquinolinesulfonyl)homopiperazine], the “concentration at which emergence of a brown-black cell population could be visually confirmed” value in experiment [3] (tested 10, 30, 100 μM, 2.0×10^6 cells per well, first step FGF receptor inhibitor, day 41 of culture) was “not less than 10 μM”. Also, in experiment [1] (10 μM in second step, 1.0×10^6 cells per well, first step FGF receptor inhibitor, day 48 of culture), the “emergence of a brown-black cell population” value is recorded as “could be visually confirmed”.
Consider `NC(=O)c1ccc(-c2nc(-c3ccc4c(c3)OCO4)c(-c3ccccn3)[nH]2)cc1` [NODALi, 4-[4-(1,3-Benzodioxol-5-yl)-5-(pyridin-2-yl)-1H-imidazol-2-yl]benzamide], for which the “emergence of cells showing typical characteristics of RPE cell” value in experiment [4] was “same level”.
For `CCN(CC)CCCCNc1ncc2cc(-c3cc(OC)cc(OC)c3)c(NC(=O)NC(C)(C)C)nc2n1` [PD173074, N-[2-[[4-(Diethylamino)butyl]amino]-6-(3,5-dimethoxyphenyl)pyrido[2,3-d]pyrimidin-7-yl]-N′-(1,1-dimethylethyl)urea], the “RT-PCR bands of retinal pigment epithelial cell markers RPE65, BEST1, CRALBP” value in experiment [5] is on record as “clear bands could be confirmed”. For the same compound, the “emergence of a brown-black cell population” value in experiment [2] (PD173074 100 nM, 6 days first step, AK03, ESSENTIAL 8 or STEMSURE hPSC Medium Δ w/o bFGF, 201B7 and/or 1231A3 line, 38 to 42 days of culture) is on record as “could be confirmed over a wide area”; in experiment [2] (first step 6 days (1 μM PD0325901 or 100 nM PD173074), 1231A3 line, day 43 of culture) it was “could be confirmed over a wide area”; in experiment [2] (first step 6 days (1 μM PD0325901 or 100 nM PD173074), Ff-I01 and QHJI01 lines, day 43 of culture), “could be confirmed over a wide area”; in experiment [2] (setting [7]), “could be confirmed over a wide area”. Besides, the “concentrations at which emergence of a brown-black cell population could be confirmed over a wide area” value in experiment [2] (PD173074, all concentrations studied, first step 6 days, QHJI01 line, day 36 and day 49 of culture) was 25 to 400 nM. Also, the “emergence of RPE cells showing typical characteristics of RPE cell” value in experiment [2] (first step 6 days (1 μM PD0325901 or 100 nM PD173074), 201B7 and 1231A3 lines, 38 to 47 days of culture) is given as “could be confirmed”.
With `O=C(NOCC1CC1)c1ccc(F)c(F)c1Nc1ccc(I)cc1Cl` [PD184352, (2-[(2-Chloro-4-iodophenyl)amino]-N-cyclopropylmethoxy)-3,4-difluorobenzamide], in experiment [2] (setting [6]), the “emergence of a brown-black cell population” value was “could be confirmed over a wide area”.
Consider `Cc1c[nH]c(C=C2C(=O)Nc3ccccc32)c1CCC(=O)O` [SU5402, 2-[(1,2-Dihydro-2-oxo-3H-indol-3-ylidene)methyl]-4-methyl-1H-pyrrole-3-propanoic acid], for which the “emergence of a brown-black cell population” value in experiment [2] (setting [7]) is reported as “could be confirmed over a wide area”.
For the compound `N#CC(=C(N)Sc1ccccc1N)C(C#N)=C(N)Sc1ccccc1N` [U0126, 1,4-Diamino-2,3-dicyano-1,4-bis[2-aminophenylthio]butadiene], the “emergence of a brown-black cell population” value in experiment [2] (setting [6]) is on record as “could be confirmed over a wide area”.
In the case of `NCCNS(=O)(=O)c1ccc(Cl)c2ccncc12` [WNTi, N-(2-Aminoethyl) chloroisoquinoline-8-sulfonamide], in experiment [4] (second step days 1-12, single agent 3 μM CKI-7 with 10 μM Y-27632, day 43), the “brown-black area in the whole well” value is recorded as “decreased”. Further, in experiment [4], the “emergence of cells showing typical characteristics of RPE cell” value is “sufficient number of cells”.
Take `C[C@@H](N)[C@H]1CC[C@H](C(=O)Nc2ccncc2)CC1` [Y-27632, trans-4-[(1R)-1-aminoethyl]-N-4-pyridinylcyclohexanecarboxamide]: the “emergence of a brown-black cell population” value is reported as “could be visually confirmed” in experiment [3] (10 μM in second step (days 1-13) after FGF receptor inhibitor (100 nM PD173074) first step, day 42 of culture); “confirmed only slightly” in experiment [1] (10 μM, 3 days of exposure in second step, first step MEK inhibitor, day 49 of culture); “could be visually confirmed” in experiment [1] (low concentration (1 μM) in second step, 2.0×10^6 cells per well (10 times general number), first step FGF receptor inhibitor or MEK inhibitor, day 50). The “concentration at which emergence of a brown-black cell population could be visually confirmed” value in experiment [3] (tested 1-100 μM, first step FGF receptor inhibitor or MEK inhibitor, day 48 of culture) is “not less than 10 μM”; in experiment [1] (second step, tested 1-100 μM, first step FGF receptor inhibitor or MEK inhibitor, day 50 of culture), “not less than 3 μM”. Besides, in experiment [1] (10 μM in second step, tested 3-20 days, first step MEK inhibitor, day 49 of culture), the “exposure period at which emergence of a brown-black cell population could be visually confirmed” value is listed as “not less than 6 days”.
